Values after ≈ are worked out from the molar mass of the structure shown. Read-outs that look alike come from different tables or passages of the source. Non-standard residues stand in square brackets, D forms with d. Residues, ends and D or L forms follow the SMILES beside them. *: point of attachment. Lauroyl = CCCCCCCCCCCC(=O)*
Experiments:
Assay type in all cases: cell-based
[1] = test system: Candida albicans ATCC 10231; test: microbe, parasite or virus in culture
Description: (§1) The antifungal activity of the lipopeptides was examined in sterile 96-well plates (Nunc F96 microtiter plates) in a final volume of 200 μL as follows: 100 µl of a suspension containing fungi at a concentration of 1×10^4 Colony-Forming Units (CFU)/ml in culture medium (RPMI 1640, 0.165 M MOPS with L-glutamine, without NaHCO3) at pH 7.4 or pH 5.5 (adjustment of the pH was done by diluted solutions of HCl and NaOH) were added to 100 μl of water containing the peptide in serial 2-fold dilutions in water. The fungi were incubated in the presence of the lipopeptides for 24-48 h at 35° C. in a Binder KB115 incubator under agitation. Growth inhibition was determined by measuring the absorbance at 620 nm with a Microplate autoreader E1309 (Bio-Tek Instruments). Antifungal activity is expressed as the minimal inhibitory concentration (MIC), the concentration at which 100% inhibition of fungi growth was observed after the incubation time mentioned above. The fungi used were: Aspergillus niger ATCC 9642, Candida albicans ATCC 10231 and Cryptococcus neoformans ATCC 66031. If not indicated otherwise, the fungi growth was detected at pH 7.4.

[2] = test system: Cryptococcus neoformans ATCC 66031; test: microbe, parasite or virus in culture
Description: as §1

[3] = test system: Aspergillus fumigatus ATCC 26430; test: microbe, parasite or virus in culture
[4] = test system: E. coli D21
[5] = test system: Escherichia coli ATCC 25922
Description: (§2) The antibacterial activity of the lipopeptides was examined in sterile 96-well plates (Nunc F96 microtiter plates) in a final volume of 100 μl as follows: Aliquots (50 μl) of a suspension containing bacteria at concentration of 1×10^6 Colony-Forming Units (CFU)/ml in culture LB (Lauria broth) medium (pH 7.4 or pH 5.5) were added to 50 μl of water containing the lipopeptide in serial 2-fold dilutions in water. Adjustment of the pH was done by diluted solutions of HCl and NaOH Inhibition of growth was determined by measuring the absorbance at 600 nm with a Microplate autoreader E1309 (Bio-Tek Instruments), after an incubation time of 18-20 h at 37° C. Antibacterial activities were expressed as the minimal inhibitory concentration (MIC), the concentration at which 100% inhibition of growth was observed after 18-20 h of incubation. The bacteria used were: Escherichia coli ATCC 25922, Acinetobacter baumannii ATCC 19606, Pseudomonas aeruginosa ATCC 27853, Staphylococcus aureus ATCC 6538P, Enterococcus faecalis ATCC 29212, Enterobacter cloacae ATCC 49141. The antibacterial activity of lipopeptides was also examined against resistant bacteria: methicilin-resistant Staphylococcus aureus (MRSA) ATCC 700698 and vancomycin-resistant Enterococcus faecium (VRE) ATCC 700221. If not indicated otherwise, the bacterial growth was detected at pH 7.4.

[6] = test system: Acinetobacter baumannii ATCC 19606
Description: as §2

[7] = test system: Staphylococcus aureus ATCC 6538P
Description: as §2

[8] = test system: Pseudomonas aeruginosa ATCC 27853
Description: as §2

[9] = test system: Cryptococcus neoformans ATCC MYA-422; test: microbe, parasite or virus in culture; details: Cryptococcus neoformans; Table 9, short lipopeptides; pH 7.4; mean of 3 experiments, standard deviation of 25%; read-out: Minimal Inhibitory Concentration, Cyrptococcus neoformans (ATCC MYA-422)
[10] = ATCC 10231, pH 5.5, read-out: Minimal inhibitory concentrations, C. Albicans With serum
[11] = ATCC 10231, pH 5.5, read-out: Minimal inhibitory concentrations, C. Albicans Without serum
[12] = ATCC 10231, pH 7.4, read-out: Minimal inhibitory concentrations, C. Albicans With serum
[13] = ATCC 10231, pH 7.4, read-out: Minimal inhibitory concentrations, C. Albicans Without serum
[14] = ATCC 66031, pH 5.5, read-out: Minimal inhibitory concentrations, C. Neofor. With serum
[15] = ATCC 66031, pH 5.5, read-out: Minimal inhibitory concentrations, C. Neofor. Without serum
[16] = ATCC 66031, pH 7.4, read-out: Minimal inhibitory concentrations, C. Neofor. With serum
[17] = ATCC 66031, pH 7.4, read-out: Minimal inhibitory concentrations, C. Neofor. Without serum
[18] = ATCC 26430, pH 5.5, read-out: Minimal inhibitory concentrations, A. Fumig. With serum
[19] = ATCC 26430, pH 5.5, read-out: Minimal inhibitory concentrations, A. Fumig. Without serum
[20] = ATCC 26430, pH 7.4, read-out: Minimal inhibitory concentrations, A. Fumig. With serum
[21] = ATCC 26430, pH 7.4, read-out: Minimal inhibitory concentrations, A. Fumig. Without serum

MIC [1, 10]	MIC [1, 11]	MIC [1, 12]	MIC [1, 13]	MIC [2, 14]	MIC [2, 15]	MIC [2, 16]	MIC [2, 17]	MIC [3, 18]	MIC [3, 19]	MIC [3, 20]	MIC [3, 21]	Structure (SMILES)	Minimal inhibitory concentrations, E. Coli D21 ([4]; D21, pH 5.5)	Minimal inhibitory concentrations, E. Coli D21 ([4]; D21, pH 7.4)	Minimal inhibitory concentrations, E. Coli ATCC 25922 ([5]; ATCC 25922, pH 5.5)	Minimal inhibitory concentrations, E. Coli ATCC 25922 ([5]; ATCC 25922, pH 7.4)	Minimal inhibitory concentrations, A. baumannii ATCC 19606 ([6]; ATCC 19606, pH 5.5)	Minimal inhibitory concentrations, A. baumannii ATCC 19606 ([6]; ATCC 19606, pH 7.4)	Minimal inhibitory concentrations, S. aureus II ATCC 6538P ([7]; ATCC 6538, pH 5.5)	Minimal inhibitory concentrations, S. aureus II ATCC 6538P ([7]; ATCC 6538, pH 7.4)	other results
>100 µM	12.5 µM (≈ 20.9 µg/mL)	>100 µM	12.5 µM (≈ 20.9 µg/mL)	12.5 µM (≈ 20.9 µg/mL)	<0.78 µM	6.25 µM (≈ 10.5 µg/mL)	1.56 µM (≈ 2.61 µg/mL)	100 µM (≈ 167 µg/mL)	12.5 µM (≈ 20.9 µg/mL)	100 µM (≈ 167 µg/mL)	25 µM (≈ 41.9 µg/mL)	CCCCCCCCCCCC(=O)N[C@H](CC(C)C)C(=O)N[C@@H](CCCCN)C(=O)N[C@@H](Cc1c[nH]cn1)C(=O)N[C@H](CC(C)C)C(=O)N[C@H](CC(C)C)C(=O)N[C@@H](CCCCN)C(=O)N[C@@H](Cc1c[nH]cn1)C(=O)N[C@H](CC(C)C)C(=O)N[C@H](CC(C)C)C(=O)N[C@@H](CCCCN)C(=O)N[C@@H](Cc1c[nH]cn1)C(=O)N[C@H](CC(C)C)C(N)=O [lipopeptide 28, (CH3-(CH2)10-CO-)-D-Leu-Lys-His-D-Leu-D-Leu-Lys-His-D-Leu-D-Leu-Lys-His-D-Leu-NH2] (Lauroyl-[dL]KH[dL][dL]KH[dL][dL]KH[dL]-NH2)	>100 µM	50 µM (≈ 83.7 µg/mL)	>100 µM	100 µM (≈ 167 µg/mL)	>100 µM	50 µM (≈ 83.7 µg/mL)	>100 µM	18.75 µM (≈ 31.4 µg/mL)	Minimal inhibitory concentrations, P. Aeruginosa ATCC 27853 ([8]; ATCC 27853, pH 5.5): >100 µM; Minimal inhibitory concentrations, P. Aeruginosa ATCC 27853 ([8]; ATCC 27853, pH 7.4): 50 µM (≈ 83.7 µg/mL)
>100 µM	25 µM (≈ 44 µg/mL)	>100 µM	12.5 µM (≈ 22 µg/mL)	25 µM (≈ 44 µg/mL)	1.56 µM (≈ 2.74 µg/mL)	25 µM (≈ 44 µg/mL)	3.125 µM (≈ 5.49 µg/mL)	100 µM (≈ 176 µg/mL)	6.25 µM (≈ 11 µg/mL)	100 µM (≈ 176 µg/mL)	25 µM (≈ 44 µg/mL)	CCCCCCCCCCCC(=O)N[C@H](CC(C)C)C(=O)N[C@@H](CCCNC(=N)N)C(=O)N[C@@H](Cc1c[nH]cn1)C(=O)N[C@H](CC(C)C)C(=O)N[C@H](CC(C)C)C(=O)N[C@@H](CCCNC(=N)N)C(=O)N[C@@H](Cc1c[nH]cn1)C(=O)N[C@H](CC(C)C)C(=O)N[C@H](CC(C)C)C(=O)N[C@@H](CCCNC(=N)N)C(=O)N[C@@H](Cc1c[nH]cn1)C(=O)N[C@H](CC(C)C)C(N)=O [lipopeptide 27, (CH3-(CH2)10-CO-)-D-Leu-Arg-His-D-Leu-D-Leu-Arg-His-D-Leu-D-Leu-Arg-His-D-Leu-NH2] (Lauroyl-[dL]RH[dL][dL]RH[dL][dL]RH[dL]-NH2)	100 µM (≈ 176 µg/mL)	100 µM (≈ 176 µg/mL)	100 µM (≈ 176 µg/mL)	100 µM (≈ 176 µg/mL)	>100 µM	100 µM (≈ 176 µg/mL)	100 µM (≈ 176 µg/mL)	100 µM (≈ 176 µg/mL)	Minimal inhibitory concentrations, P. Aeruginosa ATCC 27853 ([8]; ATCC 27853, pH 5.5): 100 µM (≈ 176 µg/mL); Minimal inhibitory concentrations, P. Aeruginosa ATCC 27853 ([8]; ATCC 27853, pH 7.4): 100 µM (≈ 176 µg/mL)
–	–	–	–	–	–	–	–	–	–	–	–	C[C@@H]1[C@H](O)[C@@H](C)/C=C/C=C/C=C/C=C/C=C/C=C/C=C/[C@H](O[C@@H]2O[C@H](C)[C@@H](O)[C@H](N)[C@@H]2O)C[C@@H]2O[C@](O)(C[C@@H](O)C[C@@H](O)[C@H](O)CC[C@@H](O)C[C@@H](O)CC(=O)O[C@H]1C)C[C@H](O)[C@H]2C(=O)O [Amphotericin, reference compound]	–	–	–	–	–	–	–	–	MIC ([1]; Candida albicans, ATCC10231, Table 9, short lipopeptides, pH 7.4, mean of 3 experiments, standard deviation of 25%, read-out: Minimal Inhibitory Concentration, Candida Albicans (ATCC 10231)): 0.625 µM (≈ 0.578 µg/mL); MIC ([1]; Candida albicans, ATCC10231, Table 12, with serum, pH 7.4, read-out: Minimal inhibitory concentrations, C. Albicans With serum): 0.78 µM (≈ 0.721 µg/mL); MIC ([1]; Candida albicans, ATCC10231, Table 12, without serum, pH 7.4, read-out: Minimal inhibitory concentrations, C. Albicans Without serum): 3.12 µM (≈ 2.89 µg/mL); MIC ([1]; Candida albicans, ATCC10231, Table 13, pH 5.5, with serum, read-out: Minimal inhibitory concentrations, C. Albicans With serum): 0.78 µM (≈ 0.721 µg/mL); MIC ([1]; Candida albicans, ATCC10231, Table 13, pH 5.5, without serum, read-out: Minimal inhibitory concentrations, C. Albicans Without serum): 9.38 µM (≈ 8.66 µg/mL); MIC ([2]; Cryptococcus neoformans, ATCC66031, Table 12, with serum, pH 7.4, read-out: Minimal inhibitory concentrations, C. Neofor. With serum): < 0.78 µM; MIC ([2]; Cryptococcus neoformans, ATCC66031, Table 12, without serum, pH 7.4, read-out: Minimal inhibitory concentrations, C. Neofor. Without serum): < 0.78 µM; MIC ([2]; Cryptococcus neoformans, ATCC66031, Table 13, pH 5.5, with serum, read-out: Minimal inhibitory concentrations, C. Neofor. With serum): < 0.78 µM; MIC ([2]; Cryptococcus neoformans, ATCC66031, Table 13, pH 5.5, without serum, read-out: Minimal inhibitory concentrations, C. Neofor. Without serum): 3.12 µM (≈ 2.89 µg/mL); MIC ([3]; Aspergillus fumigatus, ATCC26430, Table 9, short lipopeptides, pH 7.4, mean of 3 experiments, standard deviation of 25%, read-out: Minimal Inhibitory Concentration, Aspergillus Fomigatus (ATCC 26430)): 1.25 µM (≈ 1.16 µg/mL); MIC ([3]; Aspergillus fumigatus, ATCC26430, Table 12, with serum, pH 7.4, read-out: Minimal inhibitory concentrations, A. Fumig. With serum): < 0.78 µM; MIC ([3]; Aspergillus fumigatus, ATCC26430, Table 12, without serum, pH 7.4, read-out: Minimal inhibitory concentrations, A. Fumig. Without serum): 2.34 µM (≈ 2.16 µg/mL); MIC ([3]; Aspergillus fumigatus, ATCC26430, Table 13, pH 5.5, with serum, read-out: Minimal inhibitory concentrations, A. Fumig. With serum): < 0.78 µM; MIC ([3]; Aspergillus fumigatus, ATCC26430, Table 13, pH 5.5, without serum, read-out: Minimal inhibitory concentrations, A. Fumig. Without serum): 3.12 µM (≈ 2.89 µg/mL); MIC [9]: 0.312 µM (≈ 0.288 µg/mL)

Reference: patent US8445636B2, “Antimicrobial and anticancer lipopeptides” (Yeda Research & Development Co. Ltd., priority 2003, dated 2013)
